Key:
Experiment in all cases: Test F preemergence
southern sandbur = assay type: in vivo, Cenchrus echinatus
Source text: (§1) Seeds of plant species selected from corn (Zea mays), soybean (Glycine max), velvetleaf (Abutilon theophrasti), lambsquarters (Chenopodium album), wild poinsettia (Euphorbia heterophylla), pigweed, palmer (palmer pigweed, Amaranthus palmeri), common waterhemp (Amaranthus rudis), surinam grass (Brachiaria decumbens), large crabgrass (Digitaria sanguinalis), crabgrass, Brazil (Brazilian crabgrass, Digitaria horizontalis), fall panicum (Panicum dichotomiflorum), giant foxtail (Setaria faberii), green foxtail (Setaria viridis), goosegrass (Eleusine indica), johnsongrass (Sorghum halepense), common ragweed (Ambrosia elation), barnyardgrass (Echinochloa crus-galli), southern sandbur (Cenchrus echinatus), arrowleaf sida (Sida rhombifolia), Italian ryegrass (Lolium multiflorum), dayflower, VA (Virginia (VA) dayflower, Commelina virginica), field bindweed (Convolvulus arvensis), cocklebur (common cocklebur, Xanthium strumarium), morningglory (Ipomoea coccinea), nightshade (eastern black nightshade, Solanum ptycanthum), kochia (Kochia scoparia), yellow nutsedge (Cyperus esculentus), and hairy beggarticks (Bidens pilosa), were planted into a silt loam soil and treated preemergence with test chemicals formulated in a non-phytotoxic solvent mixture which included a surfactant.
(§2) At the same time, plants from these crop and weed species and also horseweed (Canada horseweed, Conyza canadensis), smartweed (ladysthumb smartweed, Polygonum persicaria), waterhemp_RES1, (ALS & Triazine resistant common waterhemp, Amaranthus rudis), and waterhemp_RES2, (ALS & HPPD resistant common waterhemp, Amaranthus rudis) were treated with postemergence applications of test chemicals formulated in the same manner. Plants ranged in height from 2 to 18 cm for postemergence treatments (1- to 4-leaf stage). Treated plants and controls were maintained in a greenhouse for 14 to 21 days, after which time all species were compared to controls and visually evaluated. Plant response ratings, summarized in Table F, are based on a scale of 0 to 100 where 0 is no effect and 100 is complete control. A dash (-) response means no test result.

goosegrass = assay type: in vivo, Eleusine indica
Source text: as §1, §2

wild poinsettia = assay type: in vivo, Euphorbia heterophylla
Source text: as §1, §2

lambsquarters = assay type: in vivo, Chenopodium album
Source text: as §1, §2

fall panicum = assay type: in vivo, Panicum dichotomiflorum
Source text: as §1, §2

Italian ryegrass = assay type: in vivo, Lolium multiflorum
Source text: as §1, §2

[1] = Preemergence, 31 g ai/ha, scale 0 to 100
[2] = Preemergence, 62 g ai/ha, scale 0 to 100
[3] = Preemergence, 125 g ai/ha, scale 0 to 100
[4] = preemergence, 8 g ai/ha, scale 0 to 100, 100 is complete control
[5] = preemergence, 16 g ai/ha, scale 0 to 100, 100 is complete control
[6] = Preemergence, 16 g ai/ha, scale 0 to 100
[7] = Preemergence, 250 g ai/ha, scale 0 to 100

SMILES | Plant response rating, Southern Sandbur (southern sandbur; [2]) | Plant response rating, Southern Sandbur (southern sandbur; [3]) | Plant response rating, Southern Sandbur (southern sandbur; [4]) | Plant response rating, Southern Sandbur (southern sandbur; [5]) | Plant response rating, Goosegrass (goosegrass; [2]) | Plant response rating, Goosegrass (goosegrass; [3]) | Plant response rating, Goosegrass (goosegrass; [4]) | Plant response rating, Goosegrass (goosegrass; [5]) | Plant response rating, Wild Poinsettia (wild poinsettia; [2]) | Plant response rating, Wild Poinsettia (wild poinsettia; [3]) | Plant response rating, Wild Poinsettia (wild poinsettia; [4]) | Plant response rating, Wild Poinsettia (wild poinsettia; [5]) | Plant response rating, Lambsquarters (lambsquarters; [2]) | Plant response rating, Lambsquarters (lambsquarters; [3]) | Plant response rating, Lambsquarters (lambsquarters; [5]) | Plant response rating, Fall Panicum (fall panicum; [2]) | Plant response rating, Fall Panicum (fall panicum; [3]) | Plant response rating, Fall Panicum (fall panicum; [4]) | Plant response rating, Italian Ryegrass (Italian ryegrass; [2]) | Plant response rating, Italian Ryegrass (Italian ryegrass; [3]) | also measured
CCOc1cc(C(=O)NCC(F)(F)F)nn1Cc1ccnc(C(F)(F)F)c1 [Compound 104] | 80 | 90 | 0 | 0 | 75 | 100 | 5 | 25 | 80 | 98 | 0 | 10 | 100 | 100 | 60 | 100 | 100 | 15 | 60 | 75 | Plant response rating, Southern Sandbur (southern sandbur; [1]): 20; Plant response rating, Goosegrass (goosegrass; [1]): 30; Plant response rating, Wild Poinsettia (wild poinsettia; [1]): 15; Plant response rating, Lambsquarters (lambsquarters; [1]): 100; Plant response rating, Lambsquarters (lambsquarters; [4]): 35; Plant response rating, Fall Panicum (fall panicum; [1]): 90; Plant response rating, Fall Panicum (fall panicum; [5]): 85; Plant response rating, Italian Ryegrass (Italian ryegrass; [1]): 40; Plant response rating, Italian Ryegrass (Italian ryegrass; [4]): 0; Plant response rating, Italian Ryegrass (Italian ryegrass; [5]): 0
CCNC(=O)c1cc(CCCl)n(Cc2ccnc(C(F)(F)F)c2)n1 [Compound 179] | 0 | 35 | 0 |  | 30 | 30 | 0 |  | 40 | 50 | 0 |  | 30 | 100 |  | 70 | 98 | 0 | 40 | 65 | Plant response rating, Southern Sandbur (southern sandbur; [1]): 0; Plant response rating, Goosegrass (goosegrass; [1]): 30; Plant response rating, Wild Poinsettia (wild poinsettia; [1]): 5; Plant response rating, Fall Panicum (fall panicum; [1]): 35; Plant response rating, Italian Ryegrass (Italian ryegrass; [1]): 10; Plant response rating, Italian Ryegrass (Italian ryegrass; [4]): 0
CCNC(=O)c1cc(CC)n(Cc2ccnc(C(F)(F)F)c2)n1 [Compound 196] | 10 | 40 | 0 | 0 | 70 | 95 | 0 | 0 | 35 | 65 | 0 | 5 | 98 | 100 | 5 | 98 | 100 | 0 | 20 | 50 | Plant response rating, Lambsquarters (lambsquarters; [4]): 0; Plant response rating, Fall Panicum (fall panicum; [6]): 90; Plant response rating, Fall Panicum (fall panicum; [5]): 0; Plant response rating, Italian Ryegrass (Italian ryegrass; [4]): 0; Plant response rating, Italian Ryegrass (Italian ryegrass; [5]): 0
Cc1cc(C(=O)NC(C)C)nn1Cc1ccnc(C(F)(F)F)c1 [Compound 197] | 0 | 15 | 0 | 0 | 5 | 70 | 0 | 0 | 35 | 60 | 5 | 0 | 35 | 80 | 35 | 70 | 98 | 0 | 30 | 30 | Plant response rating, Lambsquarters (lambsquarters; [4]): 0; Plant response rating, Fall Panicum (fall panicum; [6]): 0; Plant response rating, Fall Panicum (fall panicum; [5]): 0; Plant response rating, Italian Ryegrass (Italian ryegrass; [4]): 0; Plant response rating, Italian Ryegrass (Italian ryegrass; [5]): 0
CCc1cc(C(=O)NC2CC2)nn1Cc1ccnc(OCC(F)(F)F)c1 [Compound 200] | 0 | 15 |  | 0 | 35 | 65 |  | 0 | 15 | 20 |  | 0 | 65 | 70 | 0 | 35 | 80 |  | 0 | 60 | Plant response rating, Southern Sandbur (southern sandbur; [7]): 60; Plant response rating, Goosegrass (goosegrass; [7]): 90; Plant response rating, Wild Poinsettia (wild poinsettia; [7]): 35; Plant response rating, Lambsquarters (lambsquarters; [7]): 98; Plant response rating, Fall Panicum (fall panicum; [7]): 90; Plant response rating, Fall Panicum (fall panicum; [6]): 0; Plant response rating, Fall Panicum (fall panicum; [5]): 0; Plant response rating, Italian Ryegrass (Italian ryegrass; [7]): 75; Plant response rating, Italian Ryegrass (Italian ryegrass; [5]): 0

Source: patent publication US20150105252A1, “SUBSTITUTED PYRAZOLES AS HERBICIDES” (E I DU PONT DE NEMOURS AND COMPANY, priority 2013, published 2015)
